In brackets after ≈: the same amount, converted by molar mass.
What follows are molecules tested on M. tuberculosis H37Rv growth inhibition (assay: Mycobacterium tuberculosis H37Rv growth inhibition, putative kinase inhibitor library, confirmatory dose response (AID 2842);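 further: bacteria incubated one week before Alamar blue readout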).
`O=C(Nc1nnc(-c2ccc(F)cc2)o1)c1ccc2c(c1)CCCC2` showed an IC90 of 8.65 µg/mL (≈ 25.6 µM). For `CC(C)CCNC(=O)c1c(O)nc2sccn2c1=O`, the IC90 was 13.1 µg/mL (≈ 46.6 µM). `O=C(Nc1nnc(-c2cccs2)o1)C1CCCCC1` was tested, and the IC90 was 26.9 µg/mL (≈ 97.1 µM). With `CCCCC(=O)Nc1nnc(-c2ccc(Cl)s2)o1` the IC90 was 3.23 µg/mL (≈ 11.3 µM). For `COc1cc(Br)cc(/C=N/Nc2nc(=O)[nH]nc2C)c1O`, the IC90 was under 0.2 µg/mL. `COc1cc(/C=C(\C#N)c2nc(-c3ccc(C)cc3)cs2)cc([N+](=O)[O-])c1O` showed an IC90 of 3.26 µg/mL (≈ 8.29 µM). `Cc1ccc(-c2nnc(NC(=O)c3ccc([N+](=O)[O-])o3)o2)c(C)c1` showed an IC90 of 0.69 µg/mL (≈ 2.1 µM). `C=CCOC(=O)COc1ccc2c(C)c(-c3ccccc3)c(=O)oc2c1` was tested, and the IC90 was 0.85 µg/mL (≈ 2.43 µM). `O=C(Nc1nnc(-c2cc(Cl)ccc2Cl)o1)c1nc2ccccc2s1` gave an IC90 of 10.5 µg/mL (≈ 26.7 µM). In the case of `Cc1cccc(C(=O)Nc2nnc(-c3cccnc3)o2)c1`, the IC90 is reported as 8.87 µg/mL (≈ 31.6 µM). For `O=C(c1cccs1)N(CCCn1ccnc1)c1nc2c(Cl)cccc2s1`, the IC90 was 5.18 µg/mL (≈ 12.9 µM). `COc1ccccc1-c1nnc(Nc2nc3ccc(SC)cc3s2)o1` gave an IC90 of 15.9 µg/mL (≈ 42.9 µM). `CC(C)N1CCc2c(sc(NC(=O)c3ccc(S(=O)(=O)N(C)c4ccccc4)cc3)c2C(N)=O)C1` gave an IC90 of 12.8 µg/mL (≈ 25 µM). Molecule `COc1ccc(-c2nc(N3CCCCC3)nc3n[nH]c(N)c23)cc1` has an IC90 of 12.9 µg/mL (≈ 39.8 µM). `Cc1ccc(C)c(-c2nnc(NC(=O)c3ccc(S(=O)(=O)N4CCc5ccccc54)cc3)o2)c1` showed an IC90 of 12.4 µg/mL (≈ 26.1 µM). With `NC(=O)c1c(NC(=O)/C=C/c2ccc([N+](=O)[O-])s2)sc2c1CCCC2` the IC90 was 4.6 µg/mL (≈ 12.2 µM). `OCc1nc2ccccc2n1CC(O)COc1ccc(Br)cc1` (stereo not drawn) showed an IC90 of 10.2 µg/mL (≈ 27 µM). `CC(=O)N1CCc2c(sc(NC(=O)c3cccs3)c2C(N)=O)C1` showed an IC90 of 3.21 µg/mL (≈ 9.19 µM). For `c1csc(Nc2nc3cc4c(cc3s2)OCO4)n1`, the IC90 was 8.57 µg/mL (≈ 30.9 µM). `CSc1nc2ccc3nc(NC(=O)c4cc5ccccc5oc4=O)sc3c2s1` showed an IC90 of 26.1 µg/mL (≈ 61.3 µM). With `NC(=O)c1c(Nc2nc3ccc(F)cc3s2)sc2c1CCCC2` the IC90 was 51.3 µg/mL (≈ 148 µM). `COc1ccc(Nc2nc(Nc3cccc(OC)c3)nc3nccnc23)cc1` showed an IC90 of 9.86 µg/mL (≈ 26.3 µM). `Cc1cc(C)c2sc(NNC(=O)c3ccc(S(=O)(=O)N4CCCCC4)cc3)nc2c1` showed an IC90 of 29.4 µg/mL (≈ 66 µM). Work on `COc1ccccc1Cn1cc2c(-c3ccc(Cl)cc3)nnc-2c2ccccc21` yielded an IC90 of 8.89 µg/mL (≈ 22.2 µM). `CCOC(=O)c1c(NC(=O)/C=C/C(N)=O)sc2c1CCCC2` was tested, and the IC90 was 6.76 µg/mL (≈ 21 µM). For `O=C(Nc1nnc(-c2ccc(Br)cc2)o1)c1cc(Cl)ccc1Cl`, the IC90 was 2.67 µg/mL (≈ 6.46 µM). Molecule `O=C(Nc1nnc(-c2cc(Cl)ccc2Cl)o1)c1c(F)cccc1F` has an IC90 of 3.48 µg/mL (≈ 9.4 µM). Molecule `COc1cc2ccccc2cc1C(=O)Nc1nnc(-c2ccc(F)cc2)o1` has an IC90 of 5.59 µg/mL (≈ 15.4 µM). In the case of `O=C(Nc1nnc(-c2ccccc2Cl)o1)c1cccc(Oc2ccccc2)c1`, the IC90 is reported as 0.86 µg/mL (≈ 2.19 µM). Work on `Cc1nnc2ccc(-c3cccc(NC(=O)c4cccc(C(F)(F)F)c4)c3)nn12` yielded an IC90 of 22.6 µg/mL (≈ 56.7 µM). With `COc1cc2c3nnc(-c4ccc(C)cc4)c-3cn(Cc3cccc(C)c3)c2cc1OC` the IC90 was 28.3 µg/mL (≈ 66.9 µM). `Cc1cc(NC2CCCCC2)n2ncc(-c3ccccc3)c2n1` gave an IC90 of 10.6 µg/mL (≈ 34.5 µM). With `CCOC(=O)c1cnc2ccc(OCC)cc2c1Nc1cccc(C)c1` the IC90 was 14.1 µg/mL (≈ 40.3 µM). `O=C(Nc1nnc(-c2cc(Cl)ccc2Cl)o1)c1ccccc1Cl` showed an IC90 of 1.66 µg/mL (≈ 4.5 µM). For `O=C(CSc1nnc(-c2cccnc2)o1)N1CCC(Cc2ccccc2)CC1`, the IC90 was 0.87 µg/mL (≈ 2.21 µM). With `CC(C)(C)c1ccc(-n2c(=O)[nH]c3c(C(N)=O)nc(CCc4ccccc4)nc32)cc1` the IC90 was 2.36 µg/mL (≈ 5.68 µM). `O=c1c2[nH]c3ccccc3c2nc(SCCN2CCCCC2)n1-c1ccccc1F` showed an IC90 of 14.6 µg/mL (≈ 34.6 µM). Molecule `CC(C)N1CCc2c(sc(NC(=O)c3nc4ccccc4s3)c2C(N)=O)C1` has an IC90 of 12.9 µg/mL (≈ 32.3 µM). In the case of `Cc1ccc(C)c2sc(N(CCCn3ccnc3)C(=O)c3ccc(F)cc3)nc12`, the IC90 is reported as 4.35 µg/mL (≈ 10.6 µM). For `O=C(Nc1nnc(-c2ccncc2)o1)c1cc(Cl)ccc1Cl`, the IC90 was 6.58 µg/mL (≈ 19.6 µM). With `CCOC(=O)N1CCc2c(sc(NC(=O)c3ccc(Oc4ccccc4)cc3)c2C(N)=O)C1` the IC90 was 0.98 µg/mL (≈ 2.11 µM). `O=C(Nc1nnc(-c2ccco2)o1)c1cccs1` was tested, and the IC90 was 3.12 µg/mL (≈ 11.9 µM). `O=C(COc1ccc(Cl)cc1)N1CCN(c2ccc(N3CCCCC3)nn2)CC1` gave an IC90 of 14.3 µg/mL (≈ 34.3 µM). For `Cc1ccccc1C(=O)Nc1nnc(-c2ccc(Cl)cc2)o1`, the IC90 was 0.55 µg/mL (≈ 1.75 µM). Molecule `O=C(Nc1cccc(C(F)(F)F)c1)NC1CC(=O)N(c2cccc(F)c2)C1` (stereo not drawn) has an IC90 of 8.52 µg/mL (≈ 22.3 µM). `CSc1ccccc1-c1nnc(NC(=O)c2cc(Cl)ccc2Cl)o1` was tested, and the IC90 was 0.98 µg/mL (≈ 2.58 µM). `Cc1ccc(C)c(-c2nnc(NC(=O)c3cccc(Cl)c3)o2)c1` gave an IC90 of 16.3 µg/mL (≈ 49.8 µM). `Oc1cc(OCc2ccccc2Cl)ccc1-c1[nH]ncc1-c1ccccc1` gave an IC90 of 7.69 µg/mL (≈ 20.4 µM). Molecule `O=C(Nc1nnc(-c2cc(Cl)ccc2Cl)o1)c1cc(-c2ccccc2)nc2ccccc12` has an IC90 of 1.96 µg/mL (≈ 4.25 µM). `Cc1cc(C)cc(Nc2nc(Nc3ccc(F)cc3)nc(N3CCOCC3)n2)c1` gave an IC90 of 11.1 µg/mL (≈ 28 µM). For `CCc1ccc(Cc2cnc(NC(=O)c3c(C)coc3C)s2)cc1`, the IC90 was 7.42 µg/mL (≈ 21.8 µM). `CN1CCc2c(sc(NC(=O)c3ccc(C(C)(C)C)cc3)c2C(N)=O)C1` gave an IC90 of 12.7 µg/mL (≈ 34.2 µM). In the case of `O=C(Nc1nnc(-c2cc(Cl)ccc2Cl)o1)c1ccccc1Br`, the IC90 is reported as 1.6 µg/mL (≈ 3.87 µM). Work on `COc1ccc2nc(NNC(=O)c3cccc(F)c3)sc2c1` yielded an IC90 of 15.8 µg/mL (≈ 49.8 µM). For `CC(C)c1ccc(-c2csc(NC(=O)c3ccc4c(c3)OCCO4)n2)cc1`, the IC90 was 3.39 µg/mL (≈ 8.91 µM). For `O=C1C(Cl)=C(Nc2ccccc2O)C(=O)N1Cc1ccccc1`, the IC90 was 5.45 µg/mL (≈ 16.6 µM). `O=C(Nc1nnc(-c2ccc(Br)cc2)o1)C1COc2ccccc2O1` (stereo not drawn) gave an IC90 of 7.27 µg/mL (≈ 18.1 µM). In the case of `CC(=O)N1CCc2c(sc(NC(=O)c3ccc(C)cc3)c2C(N)=O)C1`, the IC90 is reported as 8.93 µg/mL (≈ 25 µM).
